# Assay results published in patent publication US20100068147A1, “DENGUE DIAGNOSIS AND TREATMENT” (Agency for Science , Technology and Research, priority 2006, published 2010).
# Where a SMILES comes first, the peptide text is derived from it. [ ]: non-standard residue; d: D form. The star is where a group is joined. Nle = CCCC[C@H](N)C(=O)O; Nva = CCC[C@H](N)C(=O)O; Cbz = O=C(OCc1ccccc1)*
# How the values were obtained:
# cathepsin L = cathepsin L (Homo sapiens, UniProt P07711); conditions: cited from earlier work
# proteasome = conditions: cited from earlier work
# dengue virus TSV01 = assay: Plaque assay of supernatants of HepG2 cells infected with dengue virus TSV01 in the presence of ubiquitin-proteasome inhibitors; assay type: cell-based, dengue virus serotype 2; conditions: for virus replication in the HepG2 cell line by plaque assay of the cell culture supernatants: FIG. 4A, two days after infection, MG-132 0.4 and 0.6 μM, ALLN 10 and 15 μM, MOI 10, vs DMSO alone; for virus replication in the HepG2 cell line by plaque assay of the cell culture supernatants / virus replication by plaque assay: 2 hrs prior to infection; for virus replication by plaque assay: FIG. 7G, HepG2, MG-132 0.04 and 0.4 μM, ALLN 1 and 10 μM, MOI 10, 48 hrs
# Experimental: The HepG2 cell line is infected with TSV01, a serotype 2 dengue virus (Genbank AY037116; McBride and Vasudevan, 1995), and cells harvested over a succession of time points up to three days post-infection.
# In a second experiment we applied specific compounds to our in vitro experiment (described above) that are known to alter the function of these (and other) genes in this pathway (Table E1 below).
# HepG2 cells (ATCC) are treated with proteasome inhibitors prior to infection with dengue virus. […]
# HepG2 cells are cultured ON in 24 well plates. […]
# Cell culture supernatants are collected and assayed for dengue virus by plaque assay. Plaque forming units per ml are expressed as the mean percentage of the highest number of pfu/ml (DMSO alone)±SEM, (n=3). Cytotoxicity is measured using FDA and results are expressed as the mean percentage compared to DMSO alone±SEM, (n=3). “*” indicates p<0.05 and “**”indicates p<0.005 by students t-test comparing each treatment to DMSO alone.
# The type 2 dengue virus strain TSV01 is obtained from an outbreak in Townsville, Australia (McBride and Vasudevan 1995) (GenBank, accession number AY037116). TSV01 is cultured in the C6/36 cell line (from the Aedes albopictus mosquito) with virus added to cells in a T175 flask (MOI 0.01) and incubated for 1 hr at 28° C. with brief mixing every 20 min. Media is removed and cells washed in fresh media then media with 5% FBS added and cells incubated for 5 days at 28° C. Cell culture supernatants are removed and centrifuged at 1000×g for 10 min at 4° C. then pooled and stored in aliquots at −80° C. Heat-inactivated virus is prepared by incubating virus samples at 55° C. for 1 hr, with heat-inactivation confirmed by plaque assay.
# For plaque assay, BHK-21 cells are cultured ON in 24 well plates before media is removed and serial dilutions (10-fold) of cell culture supernatants added to individual wells. Plates are incubated for 1 hr before media is aspirated and replaced with 0.5 ml of 0.8% methyl-cellulose medium (with 2% FBS). Plates are then incubated for 5 days before the media is removed and cells fixed in 4% formaldehyde for 20 min then rinsed in water and stained with crystal violent for 20 min and rinsed again. Plaques are counted manually and concentrations of plaque forming units per ml (pfu/ml) of the sample cell culture supernatant calculated.
# calpain II = target: T1, calpain II (Homo sapiens, UniProt P17655); conditions: cited from earlier work
# T1 sequence (P17655 1-700): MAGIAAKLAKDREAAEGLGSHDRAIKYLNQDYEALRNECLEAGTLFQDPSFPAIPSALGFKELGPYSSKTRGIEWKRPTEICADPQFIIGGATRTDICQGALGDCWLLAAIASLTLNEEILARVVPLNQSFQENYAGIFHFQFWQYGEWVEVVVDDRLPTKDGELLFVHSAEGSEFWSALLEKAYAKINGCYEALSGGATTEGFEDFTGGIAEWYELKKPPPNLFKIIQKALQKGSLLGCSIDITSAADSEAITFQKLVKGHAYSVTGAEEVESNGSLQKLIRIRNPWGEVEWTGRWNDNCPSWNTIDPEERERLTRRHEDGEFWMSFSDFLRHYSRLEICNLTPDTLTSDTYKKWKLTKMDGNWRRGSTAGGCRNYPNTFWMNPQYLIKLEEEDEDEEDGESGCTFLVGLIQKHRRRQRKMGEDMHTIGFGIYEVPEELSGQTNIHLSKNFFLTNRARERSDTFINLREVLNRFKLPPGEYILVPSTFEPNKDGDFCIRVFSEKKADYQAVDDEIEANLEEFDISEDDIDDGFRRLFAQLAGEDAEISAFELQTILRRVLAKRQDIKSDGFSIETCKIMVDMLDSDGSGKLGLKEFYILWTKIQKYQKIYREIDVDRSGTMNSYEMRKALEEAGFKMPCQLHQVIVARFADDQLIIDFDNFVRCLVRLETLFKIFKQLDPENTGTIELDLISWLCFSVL
# T1 sequence (P04632 1-268 partner): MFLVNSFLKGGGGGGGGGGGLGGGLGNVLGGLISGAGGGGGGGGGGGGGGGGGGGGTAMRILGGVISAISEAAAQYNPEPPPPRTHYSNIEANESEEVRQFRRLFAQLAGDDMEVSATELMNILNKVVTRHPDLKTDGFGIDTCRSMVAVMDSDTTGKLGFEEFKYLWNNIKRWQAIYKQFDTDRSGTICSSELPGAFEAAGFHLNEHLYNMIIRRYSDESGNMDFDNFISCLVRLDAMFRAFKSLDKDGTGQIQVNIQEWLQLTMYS
# [1] = target: calpain I, calpain II, cathepsin B, and cathepsin L; conditions: one range for the four enzymes; cited from earlier work
# calpain I = target: T2, calpain I (Homo sapiens, UniProt P07384); conditions: cited from earlier work
# T2 sequence (P07384 1-714): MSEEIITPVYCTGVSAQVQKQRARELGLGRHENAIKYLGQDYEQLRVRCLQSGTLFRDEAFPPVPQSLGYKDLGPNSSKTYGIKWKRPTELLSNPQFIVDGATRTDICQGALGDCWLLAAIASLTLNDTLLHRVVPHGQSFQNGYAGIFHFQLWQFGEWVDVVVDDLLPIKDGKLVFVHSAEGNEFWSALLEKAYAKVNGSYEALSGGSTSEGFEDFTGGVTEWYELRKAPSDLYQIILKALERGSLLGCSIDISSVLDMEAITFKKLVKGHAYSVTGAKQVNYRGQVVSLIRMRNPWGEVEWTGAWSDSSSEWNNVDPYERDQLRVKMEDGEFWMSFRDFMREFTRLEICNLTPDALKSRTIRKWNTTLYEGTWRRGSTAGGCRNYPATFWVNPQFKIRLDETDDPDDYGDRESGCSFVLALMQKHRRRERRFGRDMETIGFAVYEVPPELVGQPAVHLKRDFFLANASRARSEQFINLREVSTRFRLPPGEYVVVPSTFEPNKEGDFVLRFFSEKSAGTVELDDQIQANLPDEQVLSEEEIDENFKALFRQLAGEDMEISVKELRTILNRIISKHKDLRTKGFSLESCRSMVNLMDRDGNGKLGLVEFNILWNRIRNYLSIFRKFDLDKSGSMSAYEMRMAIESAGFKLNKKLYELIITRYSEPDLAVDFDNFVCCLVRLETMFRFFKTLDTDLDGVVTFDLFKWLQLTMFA
# T2 sequence (P04632 1-268 partner): T1 sequence (P04632 1-268 partner)
# 20S proteasome = conditions: cited from earlier work
# 26S proteasome = conditions: cited from earlier work
# 26S complex = conditions: cited from earlier work
# NF-kB activation = conditions: cited from earlier work
# [2] = target: chymotrypsin-like activity (Homo sapiens, UniProt P28074); conditions: cited from earlier work
# Sequence of cathepsin L (P07711 114-333, species assumed): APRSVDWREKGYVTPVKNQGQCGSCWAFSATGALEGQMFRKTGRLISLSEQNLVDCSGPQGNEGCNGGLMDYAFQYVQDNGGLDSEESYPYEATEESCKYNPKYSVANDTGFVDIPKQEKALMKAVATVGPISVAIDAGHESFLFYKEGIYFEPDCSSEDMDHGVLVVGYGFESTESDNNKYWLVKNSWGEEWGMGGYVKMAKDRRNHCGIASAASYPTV
compound,measurement,setting,value
"CCCC[C@@H](C=O)NC(=O)[C@H](CC(C)C)NC(=O)[C@H](CC(C)C)NC(C)=O [ALLN, N-Acetyl-Leu-Leu-Nle-CHO] (Ac-Leu-Leu-[Nle]-aldehyde)",Ki,cathepsin L,0.5 nM
same,Ki,proteasome,6000 nM
same,virus replication in the HepG2 cell line by plaque assay of the cell culture supernatants,dengue virus TSV01,significantly reduced
same,virus replication by plaque assay,dengue virus TSV01,significantly and consistently reduced
same,Ki,calpain II,220 nM
same,Ki,[1],150 to 500 nM
same,Ki,calpain I,190 nM
"CSCC[C@@H](C=O)NC(=O)[C@H](CC(C)C)NC(=O)[C@H](CC(C)C)NC(C)=O [Calpain Inhibitor II, Ac-Leu-Leu-Methional] (Ac-Leu-Leu-Met-aldehyde)",inhibition of proteasome activity,proteasome,does not
same,Ki,[1],120 to 600 nM
"C[C@@H]1C[C@H]2[C@@H]3CCC4=CC(=O)C=C[C@]4(C)[C@@]3(F)[C@@H](O)C[C@]2(C)[C@@]1(O)C(=O)CO [Dexamethasone, dexamethasone]",effect on viral replication,"dengue virus TSV01; HepG2 infection model, data not shown",no effect
"CCC[C@@H](C=O)NC(=O)[C@H](CC(C)C)NC(=O)[C@H](CC(C)C)NC(=O)OCc1ccccc1 [MG-115, Z-Leu-Leu-Norvalinal] (Cbz-Leu-Leu-[Nva]-aldehyde)",Ki,20S proteasome,21 nM
same,Ki,26S proteasome,35 nM
"CC(C)C[C@@H](C=O)NC(=O)[C@H](CC(C)C)NC(=O)[C@H](CC(C)C)NC(=O)OCc1ccccc1 [MG-132, Carbobenzoxy-L-leucyl-L-leucyl-L-leucinal] (Cbz-Leu-Leu-Leu-aldehyde)",Ki,proteasome,4 nM
same,virus replication in the HepG2 cell line by plaque assay of the cell culture supernatants,dengue virus TSV01,significantly reduced
same,virus replication by plaque assay,dengue virus TSV01,significantly and consistently reduced
same,"effective concentrations, reduction of degradation of ubiquitin-conjugated proteins",26S complex,micromolar concentrations. Sequence: Z-Leu-
same,IC50,NF-kB activation,3000 nM
"CC(C)C[C@H](NC(=O)OCc1ccccc1)C(=O)N[C@@H](CC(C)C)C(=O)N[C@H](C=O)Cc1ccccc1 [Proteasome Inhibitor II, Z-Leu-Leu-Phenylalaninal] (Cbz-Leu-Leu-Phe-aldehyde)",Ki,[2],460 nM
CC(C)[C@H](O)[C@@]12NC(=O)[C@H](C)[C@@H]1OC2=O [clasto-Lactacystin β-Lactone],"sensitivity relative to its precursor, lactacystin",20S proteasome; in vitro,"~10-fold more sensitive than its precursor,"
